Measured values: paper PMC8761715 (Clinical Pharmacokinetics, 2021)

How the values were obtained:
[1] = cited from earlier work
[2] = cited from earlier work; remark: listed apart in the source
[3] = Pharmacokinetics of microdosed edoxaban
[4] = cited from earlier work; remark: listed apart in the source
CYP3A = conditions: cited from earlier work
P-gp/BCRP = conditions: cited from earlier work
CYP2C19 = conditions: cited from earlier work
CYP2C9 = conditions: cited from earlier work
CYP2D6 = conditions: multiple doses of isavuconazole; cited from earlier work
[5] = Pharmacokinetics of microdosed rivaroxaban; conditions: rivaroxaban 25 µg microdose with the azole named as label, vs baseline
[6] = Plasma pharmacokinetics of the azole antifungals; format: in vivo, human; conditions: after first 200 mg dose, fasting; LLOQ 0.1 µg/mL
CYP2J2 = conditions: cited from earlier work
[7] = posaconazole as tablets; general statement, ref not given; cited from earlier work
[8] = rivaroxaban with more than one combined P-gp and CYP3A4 inhibitor; atrial fibrillation patients; 95% CI 1.01–1.85, p = 0.04; cited from earlier work

In the case of `COc1ccc(-n2nc(C(N)=O)c3c2C(=O)N(c2ccc(N4CCCCC4=O)cc2)CC3)cc1` [Apixaban, apixaban], the “Contribution of CYP enzymes other than CYP3A to overall elimination of apixaban” value [1] is listed as 6%.
In the case of `CN1CCc2nc(C(=O)N[C@@H]3C[C@@H](C(=O)N(C)C)CC[C@@H]3NC(=O)C(=O)Nc3ccc(Cl)cn3)sc2C1` [Edoxaban, edoxaban], the “Edoxaban individual CL/F, range of previous study” value ([2]; 18 study participants) is listed as 490 to 1460 mL/min, the Edoxaban bioavailability [2] is listed as “approximately 62%” and the “Edoxaban dose eliminated unchanged in the urine” value [2] is listed as “approximately 24%”. The “Edoxaban dose excreted unchanged in the faeces” value [2] was “About 50%”, the “Part of edoxaban elimination by CYP-mediated metabolism” value [2] was less than 4% and the “Average CL/F of edoxaban higher than published values” ([3]; compared with 18 study participants of ref 24) was 30%. For the same compound, the “Edoxaban individual CL/F, observed range” value ([3]; this study, 50 µg microdose) was 600 to 2200 mL/min.
In the case of `OC(Cn1cncn1)(Cn1cncn1)c1ccc(F)cc1F` [Fluconazole, fluconazole], the “Rivaroxaban CL/F reduction with fluconazole, published” value ([4]; therapeutic dose of rivaroxaban, 4 days pre-exposure) is listed as 29%, the CYP3A inhibitor classification (CYP3A) is listed as “Mainly moderate” and the P-gp/BCRP inhibitor classification (P-gp/BCRP) is listed as “not P-gp/BCRP, inhibitor”. The CYP2C19 inhibitor classification (CYP2C19) was “strong” and the CYP2C9 inhibitor classification (CYP2C9) was “moderate”.
In the case of `C[C@@H](c1nc(-c2ccc(C#N)cc2)cs1)[C@](O)(Cn1cncn1)c1cc(F)ccc1F` [Isavuconazole, isavuconazole], the “Increase in dextromethorphan exposure” value (CYP2D6) is listed as less than 20%, the CYP3A inhibitor classification (CYP3A) is listed as “Weak to moderate” and the P-gp/BCRP inhibitor classification (P-gp/BCRP) is listed as “P-gp inhibitor, but not BCRP inhibitor”. The “Effect of azole on rivaroxaban pharmacokinetics (in words)” value [5] was “did not alter any pharmacokinetic parameters”.
For `CCC(C)n1ncn(-c2ccc(N3CCN(c4ccc(OCC5COC(Cn6cncn6)(c6ccc(Cl)cc6Cl)O5)cc4)CC3)cc2)c1=O` (stereo not drawn) [Itraconazole, itraconazole], the “Azole plasma concentrations (in words)” value [6] is given as “below the LLOQ”, the CYP3A inhibitor classification (CYP3A) is given as “Strong” and the P-gp/BCRP inhibitor classification (P-gp/BCRP) is given as “P-gp/BCRP inhibitor”.
In the case of `CC(=O)N1CCN(c2ccc(OCC3COC(Cn4ccnc4)(c4ccc(Cl)cc4Cl)O3)cc2)CC1` (stereo not drawn) [Ketoconazole, ketoconazole], the “Apixaban Cmax increase with ketoconazole, published” value ([1]; similar perpetrator dose, longer pretreatment) is listed as 1.6 fold, the “Edoxaban AUC increase with ketoconazole, published” value [2] is listed as 1.9 fold and the “Rivaroxaban AUC increase with ketoconazole, published” value [4] is listed as 2.6 fold. For the same compound, the CYP3A inhibitor classification (CYP3A) was “Strong” and the CYP2J2 inhibitor classification (CYP2J2) was “potent inhibitor”.
For `CC[C@@H]([C@H](C)O)n1ncn(-c2ccc(N3CCN(c4ccc(OC[C@@H]5CO[C@@](Cn6cncn6)(c6ccc(F)cc6F)C5)cc4)CC3)cc2)c1=O` [Posaconazole, posaconazole], the “Time at which maximum plasma concentrations are reached (tmax)” value [7] is given as 4 to 5 h, the CYP3A inhibitor classification (CYP3A) is given as “Strong” and the P-gp/BCRP inhibitor classification (P-gp/BCRP) is given as “in vitro P-gp/BCRP inhibitor”.
For `O=C(NC[C@H]1CN(c2ccc(N3CCOCC3=O)cc2)C(=O)O1)c1ccc(Cl)s1` [Rivaroxaban, rivaroxaban], the “Rivaroxaban P-gp/BCRP-dependent active renal secretion” value [4] is given as “approximately 30 % of a dose”, the Rivaroxaban bioavailability [4] is given as 80–100% and the “Rivaroxaban partial clearance by non-enzymatic hydrolysis” value [4] is given as “approximately 14%”. For the same compound, the “Rivaroxaban partial clearance mediated by CYP2J2” value [4] was “approximately 14%”, the “Rivaroxaban partial clearance mediated by CYP3A” value [4] was “approximately 18 % of a dose” and the “Bleeding risk ratio (RR) compared with warfarin” value [8] was 1.37.
For `C[C@@H](c1ncncc1F)[C@](O)(Cn1cncn1)c1ccc(F)cc1F` [Voriconazole, voriconazole], the CYP3A inhibitor classification (CYP3A) is given as “Strong” and the P-gp/BCRP inhibitor classification (P-gp/BCRP) is given as “not P-gp/BCRP, inhibitor”.
